Source: patent US5684151A, “1-arylsulphonyl, arylcarbonyl and 1-arylphosphonyl-3-phenyl-1,4,5,6-tetrahydropyridazines” (priority 1995, dated 1997)
Read-outs that look alike come from different tables or passages of the source.

Legend:
[1] = tested on: mouse (MC3T3-E1) and human (TE-85) osteoblast-line cells; format: cell-based
Description: Compounds of the present invention have utility to treat osteoporosis through enhancement of bone calcification rather than traditional approaches which generally involve inhibition of bone degeneration or resorption. The compounds of the present invention have been evaluated as stimulators of proliferation of osteoblast cell and chick calivaria bone organ culture which is predictive of enhancement of bone mass and bone formation in vivo.
The action of select compounds to stimulate osteoblast growth was measured in culture by estimating the rate of DNA synthesis by the rate of ^3 H-thymidine incorporation into DNA. Only cells undergoing mitosis synthesized new DNA and thus only these cells incorporated the radiolabelled DNA-specific thymidine. The stimulation of the proliferation and differentiation of bone-forming cells, osteoblasts, was a prerequisite for an increase in bone formation and bone mass. The ability of agents to increase osteoblast proliferation and differentiation can be predicted by their action on cultured osteoblast-line cells in vitro. In this test, mouse (MC3T3-E1) and human (TE-85) osteoblast-line cells (American Type Tissue Culture Collection, #CRL 1543, Rockville, Md. cloned by Sudo et al., Koriyama, Japan) were cultured in vitro and the effect of various agents were tested on osteoblast cell proliferation. Cells were harvested from large culture flasks where they were allowed to grow to near confluency using trypsin. The cells were plated into 96 well culture plates, 1600 cells in 100 μL per well in Dulbencos Modified Eagle's Medium (DMEM) with 25 mM HEPES buffer, L-glutamine (584 mg/L); D-glucose (4.5 g/L) supplemented with fetal bovine sera (10%); penicillin (100 units/mL) and streptomycin (100 mcg/mL); sodium pyruvate (10 μM final concentration). The cells were allowed to plate overnight in DMEM containing 10% fetal bovine sera at 37° C. in an atmosphere of 5% CO2/95% air. Following their placement into 96 well culture plates all the osteoblast-line cells, either the MC3T3-E1 or the TE-85 cell lines, were allowed an additional 24 hours preincubation period in media containing only 0.1% fetal bovine sera.
Twenty hours later, a 20 μL aliquot of media containing 0.4 μCi of ^3 H-thymidine was added to each culture well. The cells were then incubated an additional 4 hours. The incubation was terminated by aspirating the media and washing with HBSS (Hank's Balanced Salt Solution). The cells were then treated with 100 μL of 0.5% trypsin and 5.3 mM EDTA for 30 minutes at room temperature. The cells were then aspirated onto glass fiber filter and washed with water. The radioactivity on the filters was quantified by liquid scintillation spectroscopy. The rate of ^3 H-thymidine incorporation into DNA was then utilized as an index of cell proliferation. The results are shown in Table 13 expressed as % times control where the control is 100%. […]

[2] = molecular target: T1, progestin receptor from rabbit uterus (Oryctolagus cuniculus, UniProt P06186); assay: Progestin receptor binding (3H-R5020 displacement); conditions: rabbit uterine cytosol, 4° C., 18 h, read-out: IC50: Binding affinity for the progestin receptor from rabbit uterus
T1 construct: Cytosolic progestin receptor were obtained by mixing rabbit uterine tissue with a Tris buffer; from tissue; host or cells: rabbit uterus cytosol
T1 sequence (P06186 whole entry): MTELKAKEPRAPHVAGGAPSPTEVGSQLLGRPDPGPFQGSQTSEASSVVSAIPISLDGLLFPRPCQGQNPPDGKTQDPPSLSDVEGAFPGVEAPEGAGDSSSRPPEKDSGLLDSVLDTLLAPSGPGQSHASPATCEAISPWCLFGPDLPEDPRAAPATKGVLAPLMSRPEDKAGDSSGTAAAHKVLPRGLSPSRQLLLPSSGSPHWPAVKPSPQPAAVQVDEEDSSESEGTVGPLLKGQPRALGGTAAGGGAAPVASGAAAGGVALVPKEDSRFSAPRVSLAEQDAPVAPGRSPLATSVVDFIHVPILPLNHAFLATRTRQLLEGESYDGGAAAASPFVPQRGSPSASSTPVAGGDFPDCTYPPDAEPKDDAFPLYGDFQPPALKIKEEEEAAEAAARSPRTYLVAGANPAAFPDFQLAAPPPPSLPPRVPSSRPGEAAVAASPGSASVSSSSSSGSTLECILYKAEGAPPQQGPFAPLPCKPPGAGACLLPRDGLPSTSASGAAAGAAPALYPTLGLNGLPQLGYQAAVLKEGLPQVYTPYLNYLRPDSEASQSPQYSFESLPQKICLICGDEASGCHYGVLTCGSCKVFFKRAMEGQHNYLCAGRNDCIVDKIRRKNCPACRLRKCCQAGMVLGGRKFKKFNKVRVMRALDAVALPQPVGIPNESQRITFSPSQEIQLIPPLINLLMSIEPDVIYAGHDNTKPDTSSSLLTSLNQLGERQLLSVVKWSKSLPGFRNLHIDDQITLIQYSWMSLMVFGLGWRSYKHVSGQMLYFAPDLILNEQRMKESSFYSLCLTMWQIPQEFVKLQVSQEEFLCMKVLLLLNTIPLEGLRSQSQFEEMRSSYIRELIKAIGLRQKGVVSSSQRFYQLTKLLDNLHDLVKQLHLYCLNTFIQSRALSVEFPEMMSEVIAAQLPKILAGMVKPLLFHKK
Procedure: A progestin initiates a biological response by first binding to a progestin receptor. Affinity for progestin receptors was determined by measuring the ability of compounds to displace a progestin radioligand from those receptors in vitro. Cytosolic progestin receptor were obtained by mixing rabbit uterine tissue with a Tris buffer [0.1M Tris-Hcl, 1 mM Na2 EDTA, 1 mM dithiothreotol, 1 mM sodium molybdate, 1% glycerol, pH 7.4]. The tissue/buffer mixture was homogenized under ice-cold conditions. The homogenate was then centrifuged and the supernatant (cytosol preparation) was decanted and stored at -70° C. and thawed prior to use. The competitive binding assay was performed by mixing ^3 H-R5020, a progestin radioligand, with cytosol preparation and various concentrations of test compounds (prepared in DMSO with a final 5% DMSO concentration). This mixture was then incubated at 4° C. for about 18 hours. Non-specific binding was determined using an unlabelled ligand in excess. After the incubation period, the radioligand bound to receptor was separated from free radioligand using dextran-coated charcoal. The amount of bound radioligand was then determined by liquid scintillation counting. The data were expressed as the concentration of test compound that displaced 50% of the radioligand from the receptor (IC50)
Aspects of the application used in this procedure are described in the following: J. L. McGuire et al., Biochemistry 13, 319, 1974.

| Compound | Osteoblast Cell Proliferation, 3H-thymidine incorporation vs control (100%) ([1]; 10^-6) | Osteoblast Cell Proliferation, 3H-thymidine incorporation vs control (100%) ([1]; 10^-7) | Osteoblast Cell Proliferation, 3H-thymidine incorporation vs control (100%) ([1]; 10^-8) | Osteoblast Cell Proliferation, 3H-thymidine incorporation vs control (100%) ([1]; 10^-9) | Osteoblast Cell Proliferation, 3H-thymidine incorporation vs control (100%) ([1]; 10^-10) | IC50 [2] |
| --- | --- | --- | --- | --- | --- | --- |
| O=S(=O)(c1ccccc1)N1CCCC(c2ccc(Cl)c(Cl)c2)=N1 [Compound 43] | 92% | 92% | 99% | 98% | 85% | 3.3 nM |
| O=S(=O)(c1ccc(F)cc1F)N1CCCC(c2ccc(Cl)cc2)=N1 [Compound 32] | 89% | 103% | 105% | 111% | 118% | 45 nM |
| Cc1ccc(S(=O)(=O)N2N=C(c3ccccc3)CC3CCCC32)cc1 (stereo not drawn) [Compound 156, 4,4a,5,6,7,7a-Hexahydro-3-phenyl-1-(4-methylbenzenesulfonyl)-1H-cyclopenta[c]pyridazine] | 127% | 124% | 126% | 136% | 183% | 1000 nM |
| O=S(=O)(c1ccc(Br)cc1)N1CCCC(c2ccc(Cl)cc2)=N1 [Compound 13] | 88% | 109% | 114% | 109% | 152% | 9 nM |
| Cc1ccc(S(=O)(=O)N2N=C(c3ccccc3)CC3C4C5C=CC(C5)C4CC32)cc1 (stereo not drawn) [Compound 157, 1,4,4a,9a-Tetrahydro-1-(4-methylbenzenesulfonyl)-3-phenyl-bicyclo[2.2.1]hept-7-enyl[5.6-a]cyclopenta-[1.2-e]pyridazine] | 107% | 108% | 113% | 111% | 128% | 750 nM |
| O=S(=O)(c1cc(Cl)ccc1Cl)N1CCCC(c2ccc(Cl)cc2)=N1 [Compound 5] | 89% | 106% | 124% | 108% | 114% | 5.3 nM |
| O=S(=O)(c1cc(C(F)(F)F)cc(C(F)(F)F)c1)N1CCCC(c2ccc(Cl)cc2)=N1 [Compound 33] | 96% | 107% | 117% | 127% | 152% | 9 nM |
| O=C(c1ccc(Cl)c(Cl)c1)N1CCCC(c2ccc(F)cc2)=N1 [Compound 205] | 92% | 115% | 140% | 141% | 138% | 263 nM |
| Nc1ccc(S(=O)(=O)N2CCCC(c3ccc(Cl)cc3)=N2)cc1 [Compound 153, 1-(4-Aminobenzenesulfonyl)-3-(4-chlorophenyl)-1,4,5,6-tetrahydropyridazine] | 85% | 115% | 83% | 99% | 103% | 636 nM |
| O=C(c1ccc(Cl)c(Cl)c1)N1CCCC(c2ccc(Cl)cc2)=N1 [Compound 200] | 97% | 109% | 107% | 120% | 88% | 5000 nM |
| O=S(=O)(c1ccc(Cl)cc1)N1CCCC(c2ccc(Cl)cc2)=N1 [Compound 6] | 81% | 97% | 106% | 114% | 121% | 15 nM |
| O=S(=O)(c1cc(Cl)ccc1Cl)N1CCCC(c2ccc(F)cc2)=N1 [Compound 11] | 106% | 135% | 156% | 131% | 154% | 20 nM |
| O=[N+]([O-])c1ccc(S(=O)(=O)N2CCCC(c3ccc(F)cc3)=N2)cc1 [Compound 10] | 91% | 90% | 123% | 115% | 139% | 1050 nM |
| COc1ccc(C2=NN(C(=O)c3ccc(Br)cc3)CCC2)cc1 [Compound 190] | 121% | 135% | 130% | 139% | 158% | 100000 nM |
| O=C(c1ccc(Cl)cc1)N1CCCC(c2ccc(F)cc2)=N1 [Compound 204] | 79% | 109% | 105% | 101% | 109% | 3000 nM |
| O=S(=O)(/C=C/c1ccccc1)N1CCCC(c2ccc(Cl)c(Cl)c2)=N1 [Compound 167] | 126% | 109% | 136% | 144% | 165% | 5.93 nM |
| COc1ccc(C2=NN(S(=O)(=O)c3ccc(Cl)cc3)CCC2)cc1 [Compound 63] | 101% | 103% | 99% | 77% | 97% | 118 nM |
